These results are taken from publication PMC11172478, “1,3,5-Triazine as Branching Connector for the Construction of Novel Antimicrobial Peptide Dendrimers: Synthesis and Biological Characterization” (International Journal of Molecular Sciences, 2024).

In brackets after ≈: the same amount, converted by molar mass. Starred links: 1 amine or outer side, 2 acyl side, 3 side chain; linkers in the order of their positions; H or OH if unused. Positions of bridges follow the written chain, without caps; N, C: chain ends. Residues, ends and D or L forms follow the SMILES beside them. Chains are numbered I, II in the order given. X1 = O=C(c1ccc(Oc2nc(NCCN[*:2])nc(NCCN[*:3])n2)cc1)[*:1] Where only a bound is given, the exact number is not on record here.

A short description of series [1]: Black lipid bilayers conductance. The conditions noted are these: DiPhPC/PS 4:1 in n-decane, 1 M KCl, −80, −120 and −180 mV. The method, then:
The basic methods have been described previously. Membranes were prepared from 1% lipid a mixture of di-phytanoyl-phosphatidylcholine/di-phytanoylphosphatidylserine (DiPhPC/PS) in a molar ratio of 4:1 in n-decane (Avanti Polar Lipids, Delfzyl, The Netherlands). Bilayers were painted over a 2 mm^2 hole in a Teflon divider separating two compartments containing 5 mL each of a bathing solution of 1MKCl. Voltages were applied across the membrane via calomel electrodes connected by a salt bridge. The resultant current was amplified 10^8-fold by a current amplifier and recorded on a Rikadenski chart recorder. A concentration of 1 μg/mL of the dendrimer was used based on the results of Wu et al..

The subject of series [2] is E. coli ATCC 25922. Kind of series: Atomic force microscopy of treated bacteria. The class given is cell-based. The conditions noted are these: E. coli ATCC 25922, dendrimer at MIC, 4 h, 37 °C. The method, then:
E. coli ATCC 25922 was grown at 37 °C in Mueller Hinton cation-adjusted broth to an optical density of 0.25 at 625 nm. Dendrimers were added to a starting inoculum of 10^6 CFU/mL and incubated for 4 h at 37 °C with shaking. Untreated E. coli was included as a control. Cells in 1 mL of culture were centrifuged at 5000 rpm for 5 min and washed three times with 1 mL of sterile water. The bacterial cells were then resuspended in 100 µL of sterile water and a 10 µL drop was applied to a freshly cleaved mica surface and allowed to dry for approximately 10 min at room temperature.
The disk surfaces were analyzed by atomic force microscopy using an AFM XE-70 (Park Systems, Suwon, Korea) in non-contact mode with an ACTA 10M cantilever. […] The AFM images were processed using a scanning probe image processor XEI (Park Systems), correcting the plane of the AFM image for any coupling of the lateral plane and the z-axis caused by the instrument.

Series [3] concerns E. coli ATCC 25922. Type of series: cell-based. To be noted: for effect on growth curve (in words): E. coli ATCC 25922, TSB, MIC, ½ MIC and ¼ MIC, 37 °C, OD 850 nm. The method, then:
The real-time effect of the peptide dendrimers was examined on the growth curves of E. coli ATCC 25922 and P. aeruginosa ATCC 27853. Volumes of 10 mL of TSB liquid cultures containing 1–5 × 10^5 CFU/mL in the logarithmic phase were adjusted in Falcon tubes. Peptide dendrimers were then added at MIC and sub-inhibitory concentrations (½ MIC and ¼ MIC). Incubation was performed in RTS-1C real-time reverse spin bioreactors RTS-1 (Biosan) for 24 h at 37 °C and 2000 rpm. Growth was measured noninvasively as optical density (OD 850 nm) every 15 min.

A further series deals with L-929 fibroblasts. Kind of series: Cytotoxicity, resazurin reduction. Type of series: cell-based, murine. The conditions noted are these: L-929 cells, 24 h, resazurin fluorescence. On the procedure: (§1) The cytotoxicity assay was performed in the human hepatocellular carcinoma cell line Hep G2 ATCC and murine L-929 fibroblasts (NCTC clone 929, ECACC 88102702) obtained from the laboratory of Dr. Pérez-Tomás (Cancer Cell Biology, University of Barcelona). The cytotoxicity of the selected peptides was determined by measuring the intracellular reduction of resazurin sodium salt (Sigma-Aldrich, St. Louis, MO, USA). Briefly, HepG2 and L-929 cells were grown in RPMI 1640 or MEM medium, respectively (Biochrom AG, Berlin, Germany), supplemented with 10% fetal bovine serum. Cells from pre-confluent cultures were harvested with trypsin-EDTA and maintained at 37 °C in 5% CO2. Then, 100 µL of each cell line was seeded into 96-well flat-bottomed microplates and incubated for 24 h at 37 °C. The medium was then replaced with 200 μL of medium containing the dendrimers at concentrations ranging from 64 to 0.125 μg/mL and the microplates were incubated for 24 h at 37 °C. Next, 20 μL of resazurin was added to each well and the plates were incubated under the same conditions for 24 h. Fluorescence was measured using a multiwell scanning spectrophotometer at an excitation wavelength of 530 nm and an emission wavelength of 590 nm. Cytotoxicity was then calculated by comparing the fluorescence of the treated and untreated cells (Figure S22).

The subject of series [4] is Hep G2 hepatocellular carcinoma cell line. Kind of series: Cytotoxicity, resazurin reduction. Type of series: cell-based, human. To be noted: HepG2 cells, 24 h, resazurin fluorescence. On the procedure:
as §1
For orientation: The colour change of resazurin is a common sign of viable cells or microbes.

The next series relates to E. coli 13974. The experiment in a line: microbe, parasite or virus in culture. The class given is cell-based. The conditions noted are these: 13974, 24 h. The method, then: (§2) E. coli ATCC 25922, P. aeruginosa ATCC 27853, S. aureus ATCC 29213, P. aeruginosa 666 SJD (ciprofloxacin-resistant), P. aeruginosa P12, P13, P15, P16 and P17 (MDR isolates) and E. coli 7987, 5545, 8248, 13974, 7259 and 208691 (MDR isolates) from our own collection were included in the present study.
(§3) The antimicrobial activity of the dendrimers was evaluated against E. coli ATCC 25922, P. aeruginosa ATCC 27853 and S. aureus ATCC 29213 strains. The MIC values were determined by the broth microdilution method. Briefly, the different strains were grown in Muller Hinton broth cation adjusted (MHBCA) medium overnight at 37 °C with shaking at 200 rpm. The bacterial cultures were then adjusted to OD625nm of 0.08–0.1, and 5 μL of each diluted suspension was added to 96-well plates previously filled with MHBCA and serially diluted peptides. Plates were incubated for 24 h at 37 °C. Finally, the MIC was determined macroscopically, based on the visual turbidity of the wells.

Another series has as its system E. coli 5545. The experiment in a line: microbe, parasite or virus in culture. Type of series: cell-based. The conditions noted are these: 5545, 24 h. The method, then: as §2, §3
The test system of another series is E. coli 8248. Kind of series: microbe, parasite or virus in culture. To be noted: 8248, 24 h. Type of series: cell-based. The method, then:
as §2, §3

A further series deals with P. aeruginosa P16. The experiment in a line: microbe, parasite or virus in culture. To be noted: P16, 24 h. Type of series: cell-based. On the procedure:
as §2, §3

The next series has as its system P. aeruginosa P12. Kind of series: microbe, parasite or virus in culture. Type of series: cell-based. To be noted: P12, 24 h. On the procedure: as §2, §3
The next series concerns P. aeruginosa P17. The experiment in a line: microbe, parasite or virus in culture. Type of series: cell-based. The conditions noted are these: P17, 24 h. On the procedure: as §2, §3
The test system of another series is E. coli 7259. The experiment in a line: microbe, parasite or virus in culture. To be noted: 7259, 24 h. The class given is cell-based. The method, then: as §2, §3
The next series deals with E. coli 208691. The experiment in a line: microbe, parasite or virus in culture. To be noted: 208691, 24 h. The class given is cell-based. On the procedure:
as §2, §3

The test system of another series is E. coli 7987. Kind of series: microbe, parasite or virus in culture. The class given is cell-based. To be noted: 7987, 24 h. On the procedure: as §2, §3
For another series, the system named is P. aeruginosa P15. The experiment in a line: microbe, parasite or virus in culture. Type of series: cell-based. To be noted: P15, 24 h. On the procedure: as §2, §3
A further series has as its system P. aeruginosa P13. The experiment in a line: microbe, parasite or virus in culture. Type of series: cell-based. To be noted: P13, 24 h. On the procedure:
as §2, §3

On to `CC(C)C[C@H](NC(=O)c1ccc(Oc2nc(NCCNC(=O)[C@H](CCCCN)NC(=O)[C@H](CC(C)C)NC(=O)[C@H](CCCCN)NC(=O)[C@H](CC(C)C)NC(=O)[C@H](CCCCN)NC(=O)[C@@H](N)CC(C)C)nc(NCCNC(=O)[C@H](CCCCN)NC(=O)[C@H](CC(C)C)NC(=O)[C@H](CCCCN)NC(=O)[C@H](CC(C)C)NC(=O)[C@H](CCCCN)NC(=O)[C@@H](N)CC(C)C)n2)cc1)C(=O)N[C@@H](CCCCN)C(=O)N[C@@H](CC(C)C)C(=O)N[C@@H](CCCCN)C(=O)N[C@@H](CC(C)C)C(=O)N[C@@H](CCCCN)C(N)=O` [Dendrimer 1, H-[(LK)3]2-(EDA)2-TA-PHBA-(LK)3-NH2] (I: LKLKLK-NH2 / II: H-LKLKLK / III: H-LKLKLK; linker I:N-II:C-III:C via X1), for which the “channel formation in planar lipid bilayers (conductance)” value in series [1] was “did not induce membrane channels”. Moreover, the “bacterial surface alteration by AFM (in words)” value in the series on E. coli ATCC 25922 [2] is listed as “significant surface damages”. The “MIC value deduced from microfermentor experiments” value in the series on E. coli ATCC 25922 [3] (ATCC 25922, 24 h) is on record as < 2 µg/mL. For the same molecule, the “effect on growth curve (in words)” value in the series with E. coli ATCC 25922 [3] (24 h) was “fully inhibited growth at the three concentrations tested”. Besides, the “concentration that completely inhibited detectable growth” value in the series on E. coli ATCC 25922 [3] (E. coli ATCC 25922, growth curves, 24 h) amounted to 2 µg/mL. Besides, the “% Cytotoxicity at 64µg/mL, L-929” value with L-929 fibroblasts is listed as 2.8%. Moreover, the “% Cytotoxicity at 64µg/mL, HepG2” value in series [4] is 0%. The MIC against E. coli 13974 is 8 µg/mL (≈ 3.19 µM); in the series with E. coli 5545, 8 µg/mL (≈ 3.19 µM); in the series on E. coli 8248 it was 8 µg/mL (≈ 3.19 µM); in the series on P. aeruginosa P16, 64 µg/mL (≈ 25.6 µM); in the series with P. aeruginosa P12 it was >128 µg/mL; in the series with P. aeruginosa P17 it was 16 µg/mL (≈ 6.39 µM). The MIC is 32 µg/mL (≈ 12.8 µM) against E. coli 7259; 32 µg/mL (≈ 12.8 µM) against E. coli 208691; 8 µg/mL (≈ 3.19 µM) against E. coli 7987; >128 µg/mL against P. aeruginosa P15; 64 µg/mL (≈ 25.6 µM) in the series on P. aeruginosa P13.
Consider `CC(C)C[C@H](NC(=O)[C@H](CCCCN)NC(=O)[C@H](CC(C)C)NC(=O)[C@H](CCCCN)NC(=O)[C@H](CC(C)C)Nc1nc(NCCNC(=O)[C@H](CCCCN)NC(=O)[C@H](CC(C)C)NC(=O)[C@H](CCCCN)NC(=O)[C@H](CC(C)C)NC(=O)[C@H](CCCCN)NC(=O)[C@@H](N)CC(C)C)nc(NCCNC(=O)[C@H](CCCCN)NC(=O)[C@H](CC(C)C)NC(=O)[C@H](CCCCN)NC(=O)[C@H](CC(C)C)NC(=O)[C@H](CCCCN)NC(=O)[C@@H](N)CC(C)C)n1)C(=O)N[C@@H](CCCCN)C(N)=O` [Dendrimer 2, H-[(LK)3-EDA]2-TA-(LK)3-NH2], for which the “channel formation in planar lipid bilayers (conductance)” value in series [1] was “did not induce membrane channels”. The “bacterial surface alteration by AFM (in words)” value in the series with E. coli ATCC 25922 [2] is listed as “significant surface damages”. The “effect on growth curve (in words)” value in the series with E. coli ATCC 25922 [3] (24 h) is given as “full growth inhibition only at the MIC”. Besides, the “% Cytotoxicity at 64µg/mL, L-929” value with L-929 fibroblasts is given as 0%. Besides, the “% Cytotoxicity at 64µg/mL, HepG2” value in [4] was 0%. Moreover, the MIC against E. coli 13974 came out at 8 µg/mL (≈ 3.36 µM); against E. coli 5545 it was 8 µg/mL (≈ 3.36 µM); with E. coli 8248, 8 µg/mL (≈ 3.36 µM); against P. aeruginosa P16, 32 µg/mL (≈ 13.4 µM); against P. aeruginosa P12, 32 µg/mL (≈ 13.4 µM); against P. aeruginosa P17, 16 µg/mL (≈ 6.71 µM). Besides, the MIC against E. coli 7259 turned out to be 2 µg/mL (≈ 0.839 µM); in the series on E. coli 208691, 8 µg/mL (≈ 3.36 µM); in the series on E. coli 7987, 4 µg/mL (≈ 1.68 µM); against P. aeruginosa P15, 16 µg/mL (≈ 6.71 µM); against P. aeruginosa P13, 32 µg/mL (≈ 13.4 µM).
